Source: patent publication US10933063B2 (priority 2017, dated 2021)

Target: BTK (Homo sapiens (Human), UniProt Q06187)
Assay: biochemical
Method: Btk kinase activity was determined using a homogenous time resolved fluorescence (HTRF) methodology. Measurements were performed in a reaction volume of 15 μL using 384-well assay plates. Kinase enzyme, inhibitor, ATP and 1 μM peptide substrate were incubated in a reaction buffer compose of Hepes50 mM (pH7.0), NaN3 0.02%, BSA 0.01%, Orthocanadate 0.1 mM. […] For each compound, enzyme activity as measured at various concentrations of compound, Negative control reactions were performed in the absence of inhibitor in two replicates and eight no enzyme controls were used to determine baseline fluorescence levels.

BTK, sequence (Q06187 whole entry, looked up, species assumed): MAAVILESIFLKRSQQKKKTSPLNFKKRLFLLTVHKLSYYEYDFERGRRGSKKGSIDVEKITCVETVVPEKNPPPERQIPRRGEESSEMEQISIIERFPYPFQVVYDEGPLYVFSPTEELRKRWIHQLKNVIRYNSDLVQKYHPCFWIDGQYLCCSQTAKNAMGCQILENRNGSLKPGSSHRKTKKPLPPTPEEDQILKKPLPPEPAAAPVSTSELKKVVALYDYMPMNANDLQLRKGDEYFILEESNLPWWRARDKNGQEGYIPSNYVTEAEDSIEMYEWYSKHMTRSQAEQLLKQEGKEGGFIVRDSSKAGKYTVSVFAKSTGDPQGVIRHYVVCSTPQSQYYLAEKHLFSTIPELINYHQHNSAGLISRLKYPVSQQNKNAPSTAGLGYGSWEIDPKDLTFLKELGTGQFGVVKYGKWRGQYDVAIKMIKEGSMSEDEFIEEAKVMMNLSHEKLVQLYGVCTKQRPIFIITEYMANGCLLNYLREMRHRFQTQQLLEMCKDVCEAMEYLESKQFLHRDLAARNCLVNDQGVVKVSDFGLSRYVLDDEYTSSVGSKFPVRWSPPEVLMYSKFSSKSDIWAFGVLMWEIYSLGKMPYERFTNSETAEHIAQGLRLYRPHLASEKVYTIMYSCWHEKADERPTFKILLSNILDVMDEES

| SMILES | IC50 |
| --- | --- |
| CC#CC(=O)N1CCC[C@H]1c1nc(-c2ccc(C(=O)Nc3ccccn3)cc2)c2cncc(C)n12 [Example 173, (S)-4-(3-(1-(but-2-ynoyl)pyrrolidin-2-yl)-5-methylimidazo[1,5-a]pyrazin-1-yl)-N-(pyridin-2-yl)benzamide] | 1 to 10 µM |
| C=CC(=O)N1CCC[C@@H](c2nc(-c3ccc(Oc4cccc(OC)c4F)cc3)c3c(C)ncc(C)n23)C1 [Example 76, (R)-1-(3-(1-(4-(2-fluoro-3-methoxyphenoxy)phenyl)-5,8-dimethylimidazo[1,5-a]pyrazin-3-yl)piperidin-1-yl)prop-2-en-1-one] | 0.01 to 0.1 µM |
| C=CC(=O)N1CCCC[C@H]1c1nc(-c2ccc(Oc3cccc(F)c3)cc2)c2cnccn12 [Example 45, (S)-1-(2-(1-(4-(3-fluorophenoxy)phenyl)imidazo[1,5-a]pyrazin-3-yl)piperidin-1-yl)prop-2-en-1-one] | 0.01 to 0.1 µM |
| C=CC(=O)N1CCCC[C@H]1c1nc(-c2ccc(Oc3cccc(OC)c3F)cc2)c2c(C(=O)OC)nccn12 [Example 66, methyl (S)-3-(1-acryloylpiperidin-2-yl)-1-(4-(2-fluoro-3-methoxyphenoxy)phenyl)imidazo[1,5-a]pyrazine-8-carboxylate] | 1 to 10 µM |
| COc1cccc(Oc2ccc(-c3nc([C@@H]4CCCN4C(=O)/C(C#N)=C/C(C)(C)C)n4ccncc34)cc2)c1F [Example 31, (S,E)-2-(2-(1-(4-(2-fluoro-3-methoxyphenoxy)phenyl)imidazo[1,5-a]pyrazin-3-yl)pyrrolidine-1-carbonyl)-4,4-dimethylpent-2-enenitrile] | 0.1 to 1 µM |
| CC#CC(=O)N1CCC[C@@H](c2nc(-c3ccc(Oc4cccc(OC)c4)cc3)c3cnccn23)C1 [Example 52, (R)-1-(3-(1-(4-(3-methoxyphenoxy)phenyl)imidazo[1,5-a]pyrazin-3-yl)piperidin-1-yl)but-2-yn-1-one] | 0.1 to 1 µM |
| C=CC(=O)N1CCCC[C@H]1c1nc(-c2ccc(C(=O)Nc3ccccn3)cc2)c2cncc(C)n12 [Example 186, (S)-4-(3-(1-acryloylpiperidin-2-yl)-5-methylimidazo [1,5-a]pyrazin-1-yl)-N-(pyridin-2-yl)benzamide] | 0.1 to 1 µM |
| CC#CC(=O)N1CC[C@@H](c2nc(-c3ccc(Oc4cccc(OC)c4F)cc3)c3cncc(C)n23)C1 [Example 73, (R)-1-(3-(1-(4-(2-fluoro-3-methoxyphenoxy)phenyl)-5-methylimidazo[1,5-a]pyrazin-3-yl)pyrrolidin-1-yl)but-2-yn-1-one] | 0.01 to 0.1 µM |
| C=CC(=O)N1CC[C@@H](c2nc(-c3ccc(Oc4cccc(OC)c4F)cc3)c3c(C(C)C)nccn23)C1 [Example 111, (R)-1-(3-(1-(4-(2-fluoro-3-methoxyphenoxy)phenyl)-8-isopropylimidazo[1,5-a]pyrazin-3-yl)pyrrolidin-1-yl)prop-2-en-1-one] | 1 to 10 µM |
| CC#CC(=O)N1CCCC[C@H]1c1nc(-c2ccc(COc3cccc(F)c3F)cc2)c2cnccn12 [Example 159, (S)-1-(2-(1-(4-((2,3-difluorophenoxy)methyl)phenyl)imidazo[1,5-a]pyrazin-3-yl)piperidin-1-yl)but-2-yn-1-one] | 1 to 10 µM |
| C=CC(=O)N1CCC[C@H]1c1nc(-c2ccc(Oc3cccc(F)c3)cc2)c2cnccn12 [Example 11, (S)-1-(2-(1-(4-(3-fluorophenoxy)phenyl)imidazo[1,5-a]pyrazin-3-yl)pyrrolidin-1-yl)prop-2-en-1-one] | 0.01 to 0.1 µM |
| CC#CC(=O)N1CCC[C@H]1c1nc(-c2ccc(C(=O)Nc3cccc(OC)c3F)cc2)c2cnccn12 [Example 164, (S)-4-(3-(1-(But-2-ynoyl)pyrrolidin-2-yl)imidazo[1,5-a]pyrazin-1-yl)-N-(2-fluoro-3-methoxyphenyl)benzamide] | 1 to 10 µM |
| C=CC(=O)N1CCC[C@H]1c1nc(-c2ccc(OCc3cccc(F)c3)cc2)c2cnccn12 [Example 135, (S)-1-(2-(1-(4-((3-fluorobenzyl)oxy)phenyl)imidazo[1,5-a]pyrazin-3-yl)pyrrolidin-1-yl)prop-2-en-1-one] | 0.01 to 0.1 µM |
| C=CC(=O)N1CCCC[C@H]1c1nc(-c2ccc(C(=O)Nc3ccccn3)cc2)c2cnccn12 [Example 168, (S)-4-(3-(1-acryloylpiperidin-2-yl)imidazo[1,5-a]pyrazin-1-yl)-N-(pyridin-2-yl) benzamide] | 0.01 to 0.1 µM |
| CC#CC(=O)N1CCC[C@H]1c1nc(-c2ccc(COc3ccc(F)c(F)c3)cc2)c2cnccn12 [Example 132, (S)-l-(2-(1-(4-((3,4-difluorophenoxy)methyl)phenyl)imidazo[1,5-a]pyrazin-3-yl)pyrrolidin-1-yl)but-2-yn-1-one] | 1 to 10 µM |
| CC#CC(=O)N1CCC[C@@H](c2nc(-c3ccc(C(=O)Nc4ccccn4)cc3)c3c(C)ncc(C)n23)C1 [Example 185, (R)-4-(3-(1-(but-2-ynoyl)piperidin-3-yl)-5,8-dimethylimidazo[1,5-a]pyrazin-1-yl)-N-(pyridin-2-yl)benzamide] | 0.1 to 1 µM |
| C=CC(=O)N1CCCC[C@H]1c1nc(-c2ccc(COc3cccc(F)c3F)cc2)c2cnccn12 [Example 158, (S)-1-(2-(1-(4-((2,3-difluorophenoxy)methyl)phenyl)imidazo[1,5-a]pyrazin-3-yl)piperidin-1-yl)prop-2-en-1-one] | 0.1 to 1 µM |

| SMILES | IC50 |
| --- | --- |
| C=CC(=O)N1CCC[C@H]1c1nc(-c2ccc(Oc3cccc(OC)c3F)cc2)c2c(C(N)=O)nccn12 [Example 37, (S)-3-(1-acryloylpyrrolidin-2-yl)-1-(4-(2-fluoro-3-methoxyphenoxy)phenyl)imidazo[1,5-a]pyrazine-8-carboxamide] | 1 to 10 µM |
| CC#CC(=O)N1CCC[C@H]1c1nc(-c2ccc(Oc3cccc(OC)c3F)cc2)c2c(CO)nccn12 [Example 123, (S)-1-(2-(1-(4-(2-fluoro-3-methoxyphenoxy)phenyl)-8-(hydroxymethyl)imidazo[1,5-a]pyrazin-3-yl)pyrrolidin-1-yl)but-2-yn-1-one] | 0.1 to 1 µM |
| CC#CC(=O)N1CC[C@@H](c2nc(-c3ccc(C(=O)Nc4cc(C(F)(F)F)ccn4)cc3F)c3cnccn23)C1 [Example 212, (R)-4-(3-(1-(but-2-ynoyl)pyrrolidin-3-yl)imidazo [1,5-a]pyrazin-1-yl)-3-fluoro-N-(4-(trifluoromethyl)pyridin-2-yl)benzamide] | 0.01 to 0.1 µM |
| C=CC(=O)N1CCCC[C@H]1c1nc(-c2ccc(OCc3cccc(F)c3F)cc2)c2c(C)nccn12 [Example 154, (S)-1-(2-(1-(4-((2,3-difluorobenzyl)oxy)phenyl)-8-methylimidazo[1,5-a]pyrazin-3-yl)piperidin-1-yl)prop-2-en-1-one] | 0.01 to 0.1 µM |
| C=CC(=O)N1CCCC[C@H]1c1nc(-c2ccc(OCc3cccc(F)c3)cc2)c2c(C)nccn12 [Example 139, (S)-1-(2-(1-(4-((3-fluorobenzyl)oxy)phenyl)-8-methylimidazo[1,5-a]pyrazin-3-yl)piperidin-1-yl)prop-2-en-1-one] | 0.01 to 0.1 µM |
| CC#CC(=O)N1CCC[C@H]1c1nc(-c2ccc(Oc3cccc(OC)c3F)cc2)c2c(C)ncc(C)n12 [Example 65, (S)-1-(2-(1-(4-(2-fluoro-3-methoxyphenoxy)phenyl)-5,8-dimethylimidazo[1,5-a]pyrazin-3-yl)pyrrolidin-1-yl)but-2-yn-1-one] | 0.01 to 0.1 µM |
| C=CC(=O)N1CC[C@@H](c2nc(-c3ccc(Oc4cccc(OC)c4F)cc3)c3cncc(OC(C)C)n23)C1 [Example 114, (R)-1-(3-(1-(4-(2-fluoro-3-methoxyphenoxy)phenyl)-5-isopropoxyimidazo[1,5-a]pyrazin-3-yl)pyrrolidin-1-yl)prop-2-en-1-one] | 0.01 to 0.1 µM |
| C=CC(=O)N1CCCC[C@H]1c1nc(-c2ccc(Oc3cccc(Cl)c3F)cc2)c2c(C)nccn12 [Example 42, (S)-1-(2-(1-(4-(3-chloro-2-fluorophenoxy)phenyl)-8-methylimidazo[1,5-a]pyrazin-3-yl)piperidin-1-yl)prop-2-en-1-one] | 0.01 to 0.1 µM |
| C=CC(=O)N1CCCC[C@H]1c1nc(-c2ccc(Oc3cccc(OC)c3F)cc2)c2c(C(F)(F)F)nccn12 [Example 121, (S)-1-(2-(1-(4-(2-fluoro-3-methoxyphenoxy)phenyl)-8-(trifluoromethyl)imidazo[1,5-a]pyrazin-3-yl)piperidin-1-yl)prop-2-en-1-one] | 1 to 10 µM |
| C=CC(=O)N1CCC[C@H]1c1nc(-c2ccc(Oc3cccc(OC)c3F)cc2)c2c(O)nccn12 [Example 36, (S)-1-(2-(1-(4-(2-fluoro-3-methoxyphenoxy)phenyl)-8-hydroxyimidazo[1,5-a]pyrazin-3-yl)pyrrolidin-1-yl)prop-2-en-1-one] | 0.01 to 0.1 µM |
| CC#CC(=O)N1CC[C@@H](c2nc(-c3ccc(Oc4cccc(OC)c4F)cc3)c3c(C)ncc(C)n23)C1 [Example 75, (R)-1-(3-(1-(4-(2-fluoro-3-methoxyphenoxy)phenyl)-5,8-dimethylimidazo[1,5-a]pyrazin-3-yl)pyrrolidin-1-yl)but-2-yn-1-one] | 0.01 to 0.1 µM |
| CC#CC(=O)N1CCCC[C@H]1c1nc(-c2ccc(Oc3cccc(OC)c3)cc2)c2c(C)nccn12 [Example 49, (S)-1-(2-(1-(4-(3-methoxyphenoxy)phenyl)-8-methylimidazo[1,5-a]pyrazin-3-yl)piperidin-1-yl)but-2-yn-1-one] | 0.01 to 0.1 µM |
| CC#CC(=O)N1CCCC[C@H]1c1nc(-c2ccc(Oc3cccc(OC)c3)cc2)c2cnccn12 [Example 59, (S)-1-(2-(1-(4-(3-methoxyphenoxy)phenyl)imidazo[1,5-a]pyrazin-3-yl)piperidin-1-yl)but-2-yn-1-one] | 0.1 to 1 µM |
| C=CC(=O)N1CCCC[C@H]1c1nc(-c2ccc(COc3ccc(F)c(F)c3)cc2)c2c(C)nccn12 [Example 150, (S)-1-(2-(1-(4-((3,4-difluorophenoxy)methyl)phenyl)-8-methylimidazo[1,5-a]pyrazin-3-yl)piperidin-1-yl)prop-2-en-1-one] | 0.01 to 0.1 µM |
| CC#CC(=O)N1CCCC[C@H]1c1nc(-c2ccc(C(=O)Nc3ccccn3)cc2)c2cncc(C)n12 [Example 187, (S)-4-(3-(1-(but-2-ynoyl)piperidin-2-yl)-5-methylimidazo[1,5-a]pyrazin-1-yl)-N-(pyridin-2-yl)benzamide] | 1 to 10 µM |
| CC#CC(=O)N1CCC[C@H]1c1nc(-c2ccc(OCc3cccc(F)c3)cc2)c2cnccn12 [Example 138, (S)-1-(2-(1-(4-((3-fluorobenzyl)oxy)phenyl)imidazo[1,5-a]pyrazin-3-yl)pyrrolidin-1-yl)but-2-yn-1-one] | 1 to 10 µM |
